Reference: patent publication US20230096766A1, “AMINO ACID HAVING FUNCTIONAL GROUP CAPABLE OF INTERMOLECULAR HYDROGEN BONDING, PEPTIDE COMPOUND CONTAINING SAME AND METHOD FOR PRODUCTION THEREOF” (Chugai Seiyaku Kabushiki Kaisha, priority 2018, published 2023)
*1 amine or outer side, *2 acyl side, *3 side chain or, on linkers, in order; H or OH if unused. Where a SMILES comes first, the peptide text is derived from it. Bridges are numbered along the chain shown (N, C = ends). [ ]: non-standard residue; d: D form. The star is where a group is joined. ξ: configuration not given here. NMeHph(3-OMe-4-CONHMe) = CNC(=O)c1ccc(CC[C@H](NC)C(=O)O)cc1OC; NMeAbu(3,3-F2-piperidino) = CN[C@@H](CCN1CCCC(F)(F)C1)C(=O)O; Glu(NHSO2Me) = CS(=O)(=O)NC(=O)CC[C@H](N)C(=O)O; NMePhe(3-Cl) = CN[C@@H](Cc1cccc(Cl)c1)C(=O)O; X12 = O=C([C@H](CCCC(O)C(F)(F)F)N[*:1])[*:2]; Tyr(3-F) = N[C@@H](Cc1ccc(O)c(F)c1)C(=O)O; NMehPhe = CN[C@@H](CCc1ccccc1)C(=O)O; Ethyl(2-morpholino) = C1CN(CC*)CCO1; Propyl(2,2-Me2,3-OH) = CC(C)(CO)C*; X7 = O=C(C[C@H](COCCO)N[*:1])[*:2]; X6 = O=C([C@H](CCCCO)N[*:1])[*:2]; NMeF = CN[C@@H](Cc1ccccc1)C(=O)O; NMeGABA = CN(CCCC(=O)[*:2])[*:1]; NMeI = CC[C@H](C)[C@H](NC)C(=O)O; NMeD = CN[C@@H](CC(=O)O)C(=O)O; CH2CH(OH)CF3 = OC(C*)C(F)(F)F; NMeL = CN[C@@H](CC(C)C)C(=O)O; Butyl(3R-OH) = C[C@@H](O)CC*; Propyl(2R-OH) = C[C@@H](O)C*; Butyl(3S-OH) = C[C@H](O)CC*; NMeV = CN[C@H](C(=O)O)C(C)C; NMeAbu = CC[C@H](NC)C(=O)O; NMeA = CN[C@@H](C)C(=O)O; Piperidide = C1CCN(*)CC1; dAbu = CC[C@@H](N)C(=O)O; NBuGly = CCCCNCC(=O)O; NPrGly = CCCNCC(=O)O; ξS = NC(CO)C(=O)O; Sar = CNCC(=O)O; tBu = CC(C)(C)*

assay: in vitro; conditions: human, Caco-2, Caco-2

| SMILES | Papp [×10⁻⁶ cm/s] |
| --- | --- |
| CCCCN1CC(=O)N(C)[C@@H](CC(C)C)C(=O)N[C@H](C(=O)N2CCCCC2)CC(=O)N(C)[C@@H](CC)C(=O)NC(COCCN2CCOCC2)C(=O)N(C)[C@@H](CC(C)C)C(=O)N(C)[C@@H](CC)C(=O)N[C@@H](C(C)C)C(=O)N(C)[C@@H](Cc2ccccc2)C(=O)N(C)[C@@H](CC(C)C)C(=O)N[C@@H]([C@@H](C)O)C1=O (stereo partly drawn) [pd483] ([NMeAbu][ξS](Ethyl(2-morpholino))[NMeL][NMeAbu]V[NMeF][NMeL]T[NBuGly][NMeL]D-Piperidide; lactam N-11) | 1.9 |
| CCCCN1CC(=O)N(C)[C@@H](C(C)C)C(=O)N[C@@H](CC(C)C)C(=O)N(C)[C@@H](Cc2ccccc2)C(=O)N(C)[C@@H](CCN2CCCC(F)(F)C2)C(=O)N[C@H](C(=O)N2CCCCC2)CC(=O)N[C@H](C)C(=O)N(C)[C@@H](Cc2ccccc2)C(=O)N[C@@H](CC(C)C)C(=O)N(C)[C@@H](CC(C)C)C(=O)N[C@@H]([C@@H](C)O)C1=O [pd388] ([dA][NMeF]L[NMeL]T[NBuGly][NMeV]L[NMeF][NMeAbu(3,3-F2-piperidino)]D-Piperidide; lactam N-11) | 1.9 |
| CCCCN1CC(=O)N(C)[C@@H](CC(C)C)C(=O)N[C@@H](CC(C)C)C(=O)N(C)[C@@H](Cc2ccccc2)C(=O)N(C)[C@@H](C(C)C)C(=O)N[C@H](C(=O)N2CCCCC2)CC(=O)N[C@H](CC(C)C)C(=O)N(C)[C@@H](Cc2cccc(Cl)c2)C(=O)N[C@@H](CCC(=O)NS(C)(=O)=O)C(=O)N(C)[C@@H](CC(C)C)C(=O)N[C@@H]([C@@H](C)O)C1=O [pd59] ([dL][NMePhe(3-Cl)][Glu(NHSO2Me)][NMeL]T[NBuGly][NMeL]L[NMeF][NMeV]D-Piperidide; lactam N-11) | < 0.0088 |

same assay, conditions: human, Caco-2, Caco-2 (cm/sec)

| SMILES | Papp [×10⁻⁶ cm/s] |
| --- | --- |
| CC(C)C[C@@H]1NC(=O)[C@H](Cc2ccccc2)N(C)C(=O)[C@@H](C(C)C)NC(=O)C[C@@H](C(=O)N2CCCCC2)NC(=O)[C@H](CC(C)C)N(C)C(=O)[C@H](Cc2cccc(Cl)c2)N(C)C(=O)[C@H](COCC[C@H](C)O)NC(=O)[C@H](CC(C)C)N(C)C(=O)CN(C)C(=O)[C@H]([C@@H](C)O)NC(=O)[C@H](CC(C)C)N(C)C1=O [AP100] ([dV][NMeF]L[NMeL]T[Sar][NMeL]S(Butyl(3S-OH))[NMePhe(3-Cl)][NMeL]D-Piperidide; lactam N-11) | 0.55 |
| CCCCN1CC(=O)N(C)[C@@H](C(C)C)C(=O)N[C@@H](COC(C)(C)C)C(=O)N(C)[C@@H](Cc2ccccc2)C(=O)N(C)[C@@H](CC(C)C)C(=O)N[C@H](C(=O)N2CCCCC2)CC(=O)N[C@H](C(C)C)C(=O)N(C)[C@@H](Cc2ccccc2)C(=O)N[C@@H](COCC[C@@H](C)O)C(=O)N(C)[C@@H](CC(C)C)C(=O)N[C@@H]([C@@H](C)O)C1=O [AP108] ([dV][NMeF]S(Butyl(3R-OH))[NMeL]T[NBuGly][NMeV]S(tBu)[NMeF][NMeL]D-Piperidide; lactam N-11) | 0.81 |
| CC[C@H](C)[C@@H]1NC(=O)[C@H](CC(C)C)N(C)C(=O)[C@H](COC[C@@H](C)O)NC(=O)[C@H](Cc2ccccc2)N(C)C(=O)CN(C)C(=O)C[C@@H](C(=O)N2CCCCC2)NC(=O)[C@H](CC(C)C)N(C)C(=O)[C@H](COC(C)(C)C)NC(=O)[C@H](CC(C)C)N(C)C(=O)[C@H](Cc2ccccc2)N(C)C(=O)CN(C)C1=O [AP88] ([Sar][NMeF]S(Propyl(2R-OH))[NMeL]I[Sar][NMeF][NMeL]S(tBu)[NMeL]D-Piperidide; lactam N-11) | 3.3 |
| CCCCN1CC(=O)N(C)[C@@H](CC(C)C)C(=O)N[C@H](C(=O)N2CCCCC2)CC(=O)N(C)[C@@H](C)C(=O)N[C@@H](COCC(C)(C)CO)C(=O)N(C)[C@@H](CC(C)C)C(=O)N(C)[C@@H](Cc2ccccc2)C(=O)N[C@@H](C(C)C)C(=O)N(C)[C@@H](Cc2ccccc2)C(=O)N(C)[C@@H](CC(C)C)C(=O)N[C@@H]([C@@H](C)O)C1=O [AP121] ([NMeA]S(Propyl(2,2-Me2,3-OH))[NMeL][NMeF]V[NMeF][NMeL]T[NBuGly][NMeL]D-Piperidide; lactam N-11) | 3.1 |
| CC(C)C[C@@H]1NC(=O)[C@H](Cc2ccccc2)N(C)C(=O)[C@@H](C(C)C)NC(=O)C[C@@H](C(=O)N2CCCCC2)NC(=O)[C@H](CC(C)C)N(C)C(=O)[C@H](CC(C)C)N(C)C(=O)[C@H](Cc2ccc(O)c(F)c2)NC(=O)[C@H](CC(C)C)N(C)C(=O)CN(C)C(=O)[C@H]([C@@H](C)O)NC(=O)[C@H](CC(C)C)N(C)C1=O [pd128] ([dV][NMeF]L[NMeL]T[Sar][NMeL][Tyr(3-F)][NMeL][NMeL]D-Piperidide; lactam N-11) | 0.17 |
| CC(C)C[C@@H]1NC(=O)[C@H](C)N(C)C(=O)C[C@@H](C(=O)N2CCCCC2)NC(=O)[C@H](CC(C)C)N(C)C(=O)CN(C)C(=O)[C@H]([C@@H](C)O)NC(=O)[C@H](Cc2ccccc2)N(C)C(=O)[C@H](Cc2ccccc2)N(C)C(=O)[C@H](CC(C)C)NC(=O)[C@H](Cc2ccccc2)N(C)C(=O)[C@H](CC(C)C)N(C)C1=O [pd204] ([NMeA]L[NMeL][NMeF]L[NMeF][NMeF]T[Sar][NMeL]D-Piperidide; lactam N-11) | 2 |
| CCCN1CC(=O)N(C)[C@@H](Cc2cccc(Cl)c2)C(=O)N(C)[C@@H](CC(C)C)C(=O)N[C@@H](CCCCO)C(=O)N(C)[C@@H](CC(C)C)C(=O)N[C@H](C(=O)N2CCCCC2)CC(=O)N(C)CC(=O)N(C)[C@@H](CCc2ccccc2)C(=O)N[C@@H](C(C)C)C(=O)N(C)[C@@H](CC(C)C)C(=O)N[C@@H]([C@@H](C)O)C1=O [Compound B08] ([Sar][NMehPhe]V[NMeL]T[NPrGly][NMePhe(3-Cl)][NMeL][X6][NMeL]D-Piperidide; lactam N-11) | 0.15 |
| CNC(=O)c1ccc(CC[C@H]2C(=O)N(C)[C@@H](CC(C)C)C(=O)N[C@@H]([C@@H](C)O)C(=O)N(C)CC(=O)N(C)[C@@H](CC(C)C)C(=O)N[C@H](C(=O)N3CCCCC3)CC(=O)N(C)[C@@H](C)C(=O)N[C@@H](CC(C)C)C(=O)N(C)[C@@H](CC(C)C)C(=O)N(C)[C@@H](Cc3ccccc3)C(=O)N[C@@H](CC(C)C)C(=O)N2C)cc1OC [AP230] ([NMeA]L[NMeL][NMeF]L[NMeHph(3-OMe-4-CONHMe)][NMeL]T[Sar][NMeL]D-Piperidide; lactam N-11) | 0.96 |
| CC(C)C[C@@H]1NC(=O)[C@H](Cc2ccccc2)N(C)C(=O)[C@H](C)NC(=O)C[C@@H](C(=O)N2CCCCC2)N(C)C(=O)[C@H](Cc2ccccc2)N(C)C(=O)[C@H](Cc2ccccc2)N(C)C(=O)[C@H](COC(C)(C)C)NC(=O)[C@H](CC(C)C)N(C)C(=O)CN(C)C(=O)[C@H]([C@@H](C)O)NC(=O)[C@H](CC(C)C)N(C)C1=O [pd209] (A[NMeF]L[NMeL]T[Sar][NMeL]S(tBu)[NMeF][NMeF][NMeD]-Piperidide; lactam N-11) | 1.7 |
| CCCCN1CC(=O)N(C)[C@@H](CC(C)C)C(=O)N[C@@H](COC(C)(C)C)C(=O)N(C)[C@@H](Cc2ccccc2)C(=O)N(C)[C@@H](CC(C)C)C(=O)N[C@H](C(=O)N2CCCCC2)CC(=O)N[C@H](CC)C(=O)N(C)[C@@H](Cc2ccccc2)C(=O)N[C@@H](COCC(C)(C)CO)C(=O)N(C)[C@@H](CC(C)C)C(=O)N[C@@H]([C@@H](C)O)C1=O [AP117] ([dAbu][NMeF]S(Propyl(2,2-Me2,3-OH))[NMeL]T[NBuGly][NMeL]S(tBu)[NMeF][NMeL]D-Piperidide; lactam N-11) | 0.36 |
| CCCCN1CC(=O)N(C)[C@@H](CC(C)C)C(=O)N[C@@H](COCCO)CC(=O)N(C)[C@@H](Cc2ccccc2)C(=O)N(C)[C@@H](CC(C)C)C(=O)N[C@H](C(=O)N2CCCCC2)CC(=O)N[C@H](CC(C)C)C(=O)N(C)[C@@H](CC(C)C)C(=O)N[C@@H](Cc2ccccc2)C(=O)N(C)[C@@H](CC(C)C)C(=O)N[C@@H]([C@@H](C)O)C1=O [AP21] ([dL][NMeL]F[NMeL]T[NBuGly][NMeL][X7][NMeF][NMeL]D-Piperidide; lactam N-11) | 0.21 |

same assay, conditions: human, Caco-2, Caco-2 (membrane permeability)

| SMILES | Papp [×10⁻⁶ cm/s] |
| --- | --- |
| CC(C)C[C@H]1C(=O)N[C@@H](C(C)C)C(=O)N(C)[C@@H](Cc2ccccc2)C(=O)N(C)[C@@H](Cc2ccccc2)C(=O)N[C@@H](COC(C)(C)C)C(=O)N(C)[C@@H](CC(C)C)C(=O)N[C@@H](COCC(O)C(F)(F)F)C(=O)N(C)[C@@H](CC(C)C)C(=O)N(C)[C@@H](CC(C)C)C(=O)N[C@H](C(=O)N2CCCCC2)CC(=O)N(C)CCCC(=O)N1C (stereo partly drawn) [Compound C12] ([NMeGABA][NMeL]V[NMeF][NMeF]S(tBu)[NMeL]S(CH2CH(OH)CF3)[NMeL][NMeL]D-Piperidide; lactam N-11) | 0.23 |
| CCCCN1CC(=O)N(C)[C@@H](Cc2ccccc2)C(=O)N(C)[C@@H](CC(C)C)C(=O)N[C@@H](COC(C)(C)C)C(=O)N(C)[C@@H](CC(C)C)C(=O)N[C@H](C(=O)N2CCCCC2)CC(=O)N(C)CC(=O)N(C)[C@@H](Cc2ccccc2)C(=O)N[C@@H](C(C)C)C(=O)N(C)[C@@H](CC)C(=O)N[C@@H](CCCC(O)C(F)(F)F)C1=O (stereo partly drawn) [Compound D16] ([Sar][NMeF]V[NMeAbu][X12][NBuGly][NMeF][NMeL]S(tBu)[NMeL]D-Piperidide; lactam N-11) | 0.51 |
| CCCCN1CC(=O)N(C)[C@@H](Cc2ccccc2)C(=O)N(C)[C@@H](CC(C)C)C(=O)N[C@@H](COC(C)(C)C)C(=O)N(C)[C@@H](CC(C)C)C(=O)N[C@H](C(=O)N2CCCCC2)CC(=O)N(C)CC(=O)N(C)[C@@H](Cc2cccc(Cl)c2)C(=O)N[C@@H](COCC(O)C(F)(F)F)C(=O)N(C)[C@@H](CC(C)C)C(=O)N[C@@H]([C@@H](C)O)C1=O (stereo partly drawn) [Compound C06] ([Sar][NMePhe(3-Cl)]S(CH2CH(OH)CF3)[NMeL]T[NBuGly][NMeF][NMeL]S(tBu)[NMeL]D-Piperidide; lactam N-11) | 0.48 |
| CCCCN1CC(=O)N(C)[C@@H](CC(C)C)C(=O)N[C@H](C(=O)N2CCCCC2)CC(=O)N(C)[C@@H](C)C(=O)N[C@@H](COCC(O)C(F)(F)F)C(=O)N(C)[C@@H](CC(C)C)C(=O)N(C)[C@@H](Cc2ccccc2)C(=O)N[C@@H](CC(C)C)C(=O)N(C)[C@@H](Cc2ccccc2)C(=O)N(C)[C@@H]([C@@H](C)CC)C(=O)N[C@@H]([C@@H](C)O)C1=O (stereo partly drawn) [Compound C04] ([NMeA]S(CH2CH(OH)CF3)[NMeL][NMeF]L[NMeF][NMeI]T[NBuGly][NMeL]D-Piperidide; lactam N-11) | 0.29 |
